Results reported in ChEMBL document CHEMBL4673175, “An epigrammatic status of the azole-based antimalarial drugs” (RSC Med Chem, 2020).
Converted amounts (≈) assume the structure as drawn.

Tested on: not listed separately
Experiment: Selectivity index, ratio of EC50 for cytotoxicity against […] cells to EC50 for antiplasmodial activity against Plasmodium falciparum FCR-3 ATCC 30932 infected in human erythrocytes
Assay type: toxicity, cell-based
Details: mouse, read-out: Ratio EC50

| SMILES | selectivity ratio |
| --- | --- |
| CCn1c(=O)/c(=C2\Sc3ccccc3N2C)s/c1=C\c1cccc[n+]1C | > 100 |
| CCn1c(=O)/c(=C2\Sc3ccccc3N2C)s/c1=C\c1ccc2ccccc2[n+]1C | > 100 |
| CCn1c(=O)/c(=C2\Sc3ccccc3N2C)s/c1=C\c1cc[n+](C)c2ccccc12 | > 100 |
| C=CCn1c(=O)/c(=C2\Sc3ccccc3N2C)s/c1=C\c1cc[n+](C)cc1 | > 100 |
| CCn1c(=O)/c(=C2\Sc3ccccc3N2C)s/c1=C\c1cccc(-c2ccccc2)[n+]1C | > 100 |
| CN1/C(=c2\s/c(=C\c3cccc[n+]3C)n(Cc3ccccc3)c2=O)Sc2ccccc21 | > 100 |

Tested on: Plasmodium falciparum
Experiment: Antiplasmodial activity against chloroquine sensitive Plasmodium falciparum FCR-3 infected in human erythrocytes incubated for 72 hrs by giemsa staining based assay
Assay type: functional, organism-based
Details: FCR-3, 72 h

| SMILES | EC50 [nM] |
| --- | --- |
| CCn1c(=O)/c(=C2\Sc3ccccc3N2C)s/c1=C\c1cccc[n+]1C | 4 |
| CCn1c(=O)/c(=C2\Sc3ccccc3N2C)s/c1=C\c1ccc2ccccc2[n+]1C | 4 |
| CCn1c(=O)/c(=C2\Sc3ccccc3N2C)s/c1=C\c1cc[n+](C)c2ccccc12 | 4 |
| C=CCn1c(=O)/c(=C2\Sc3ccccc3N2C)s/c1=C\c1cc[n+](C)cc1 | 4 |
| CCn1c(=O)/c(=C2\Sc3ccccc3N2C)s/c1=C\c1cccc(-c2ccccc2)[n+]1C | 4 |
| CN1/C(=c2\s/c(=C\c3cccc[n+]3C)n(Cc3ccccc3)c2=O)Sc2ccccc21 | 4 |

Tested on: Plasmodium
Experiment: Antimalarial activity against Plasmodium
Assay type: functional
Details: not given

| SMILES | IC50 [µg/mL] |
| --- | --- |
| C/C(=N\NC(=S)Nc1ccc([N+](=O)[O-])cc1)c1nc2cc(Cl)ccc2[nH]1 | 0.003 (≈ 0.00772 µM) |
| C/C(=N\NC(=S)Nc1ccc(Cl)cc1)c1nc2cc(Cl)ccc2[nH]1 | 0.003 (≈ 0.00793 µM) |
| C/C(=N\NC(=S)NC(C)C)c1nc2cc(Cl)ccc2[nH]1 | 0.003 (≈ 0.00968 µM) |
| COc1ccccc1NC(=S)N/N=C(\C)c1nc2cc(Cl)ccc2[nH]1 | 0.003 (≈ 0.00802 µM) |
| C/C(=N\NC(=S)Nc1ccccc1)c1nc2cc(Cl)ccc2[nH]1 | 0.003 (≈ 0.00872 µM) |
| C/C(=N\NC(=S)NC1CCCCC1)c1nc2cc(Cl)ccc2[nH]1 | 0.003 (≈ 0.00857 µM) |
| C/C(=N\NC(=S)Nc1ccc(F)cc1)c1nc2cc(Cl)ccc2[nH]1 | 0.003 (≈ 0.00829 µM) |
| C/C(=N\NC(=S)NC(=O)c1ccccc1)c1nc2cc(Cl)ccc2[nH]1 | 0.003 (≈ 0.00807 µM) |
| C/C(=N\NC(=S)Nc1ccc(Cl)cc1Cl)c1nc2cc(Cl)ccc2[nH]1 | 0.003 (≈ 0.00727 µM) |
| C/C(=N\NC(=S)Nc1ccc(I)cc1)c1nc2cc(Cl)ccc2[nH]1 | 0.003 (≈ 0.00639 µM) |
| CCNC(=S)N/N=C(\C)c1nc2cc(Cl)ccc2[nH]1 | 0.003 (≈ 0.0101 µM) |
| C/C(=N\NC(=S)NC(C)(C)C)c1nc2cc(Cl)ccc2[nH]1 | 0.003 (≈ 0.00926 µM) |
| COc1ccc(NC(=S)N/N=C(\C)c2nc3cc(Cl)ccc3[nH]2)cc1 | 0.003 (≈ 0.00802 µM) |
| COc1cccc(NC(=S)N/N=C(\C)c2nc3cc(Cl)ccc3[nH]2)c1 | 0.003 (≈ 0.00802 µM) |
| C/C(=N\NC(N)=S)c1nc2cc(Cl)ccc2[nH]1 | 0.003 (≈ 0.0112 µM) |
| CCCCNC(=S)N/N=C(\C)c1nc2cc(Cl)ccc2[nH]1 | 0.003 (≈ 0.00926 µM) |
| C/C(=N\NC(=S)Nc1ccc(C)cc1)c1nc2cc(Cl)ccc2[nH]1 | 0.003 (≈ 0.00838 µM) |
| C/C(=N\NC(=S)NCc1ccccc1)c1nc2cc(Cl)ccc2[nH]1 | 0.003 (≈ 0.00838 µM) |

Tested on: Hemozoin
Experiment: Inhibition of beta-hematin formation at 5 to 100 mM incubated for 48 hrs
Details: dose 5-100 mM

| SMILES | inhibition [%] |
| --- | --- |
| COc1cc(NC(=O)c2ccc3[nH]c(-c4ccc([N+](=O)[O-])s4)nc3c2)cc(OC)c1OC | < 98 |
| COc1cccc(NC(=O)c2ccc3[nH]c(-c4ccc([N+](=O)[O-])o4)nc3c2)c1 | < 98 |
| Cc1cc(C)cc(NC(=O)c2ccc3[nH]c(-c4ccc([N+](=O)[O-])o4)nc3c2)c1 | < 98 |
| O=C(Nc1ccc(Br)cc1)c1ccc2[nH]c(-c3ccc([N+](=O)[O-])s3)nc2c1 | < 98 |
| COc1ccc(NC(=O)c2ccc3[nH]c(-c4ccc([N+](=O)[O-])s4)nc3c2)c(OC)c1 | < 98 |
| Cc1ccc(NC(=O)c2ccc3[nH]c(-c4ccc([N+](=O)[O-])o4)nc3c2)cc1C | < 98 |
| O=C(Nc1ccc(Cl)cc1)c1ccc2[nH]c(-c3ccc([N+](=O)[O-])s3)nc2c1 | < 98 |
| Cc1ccc(NC(=O)c2ccc3[nH]c(-c4ccc([N+](=O)[O-])s4)nc3c2)cc1C | < 98 |
| Cc1ccccc1NC(=O)c1ccc2[nH]c(-c3ccc([N+](=O)[O-])s3)nc2c1 | < 98 |
| Cc1ccc(NC(=O)c2ccc3[nH]c(-c4ccc([N+](=O)[O-])s4)nc3c2)c(C)c1 | < 98 |
| O=C(Nc1ccccc1Cl)c1ccc2[nH]c(-c3ccc([N+](=O)[O-])o3)nc2c1 | < 98 |
| O=C(Nc1ccccc1Cl)c1ccc2[nH]c(-c3ccc([N+](=O)[O-])s3)nc2c1 | < 98 |
| COc1ccc(NC(=O)c2ccc3[nH]c(-c4ccc([N+](=O)[O-])s4)nc3c2)cc1Cl | < 98 |
| Cc1ccc(C)c(NC(=O)c2ccc3[nH]c(-c4ccc([N+](=O)[O-])o4)nc3c2)c1 | < 98 |
| COc1cccc(NC(=O)c2ccc3[nH]c(-c4ccc([N+](=O)[O-])s4)nc3c2)c1 | < 98 |
| Cc1cccc(NC(=O)c2ccc3[nH]c(-c4ccc([N+](=O)[O-])s4)nc3c2)c1 | < 98 |
| Cc1ccc(C)c(NC(=O)c2ccc3[nH]c(-c4ccc([N+](=O)[O-])s4)nc3c2)c1 | < 98 |
| COc1ccc(NC(=O)c2ccc3[nH]c(-c4ccc([N+](=O)[O-])o4)nc3c2)cc1Cl | < 98 |
| Cc1ccccc1NC(=O)c1ccc2[nH]c(-c3ccc([N+](=O)[O-])o3)nc2c1 | < 98 |
| Cc1cc(C)cc(NC(=O)c2ccc3[nH]c(-c4ccc([N+](=O)[O-])s4)nc3c2)c1 | < 98 |
| O=C(Nc1ccc(C(F)(F)F)cc1)c1ccc2[nH]c(-c3ccc([N+](=O)[O-])s3)nc2c1 | < 98 |
| O=C(Nc1ccc(Br)cc1)c1ccc2[nH]c(-c3ccc([N+](=O)[O-])o3)nc2c1 | < 98 |
| O=C(Nc1ccc(C(F)(F)F)cc1)c1ccc2[nH]c(-c3ccc([N+](=O)[O-])o3)nc2c1 | < 98 |
| O=C(Nc1ccc(Cl)cc1)c1ccc2[nH]c(-c3ccc([N+](=O)[O-])o3)nc2c1 | < 98 |
| Cc1cccc(NC(=O)c2ccc3[nH]c(-c4ccc([N+](=O)[O-])o4)nc3c2)c1 | < 98 |
| COc1cc(NC(=O)c2ccc3[nH]c(-c4ccc([N+](=O)[O-])o4)nc3c2)cc(OC)c1OC | < 98 |
| COc1ccc(NC(=O)c2ccc3[nH]c(-c4ccc([N+](=O)[O-])o4)nc3c2)c(OC)c1 | < 98 |

Tested on: Plasmodium falciparum
Experiment: Antimalarial activity against chloroquine sensitive Plasmodium falciparum assessed as reduction in parasite growth incubated for 48 hrs
Assay type: functional, organism-based
Details: not given

| SMILES | IC50 [µg/mL] |
| --- | --- |
| Cc1nn(-c2ccccc2)c(-n2cncn2)c1C1=CC(c2ccc(F)cc2)=NC2Nc3ccccc3N12 (stereo unspecified) | 0.03 (≈ 0.0614 µM) |
| COc1ccc(C2=NC3Nc4ccccc4N3C(c3c(C)nn(-c4ccccc4)c3-n3cncn3)=C2)cc1 (stereo unspecified) | 0.03 (≈ 0.0599 µM) |
| Cc1cn(-c2c(C3CC(c4ccc(F)cc4)=NO3)c(C)nn2-c2ccccc2)cn1 (stereo unspecified) | 0.012 (≈ 0.0299 µM) |
| COc1ccc(C2=NOC(c3c(C)nn(-c4ccccc4)c3-n3ccnc3)C2)cc1 (stereo unspecified) | 0.012 (≈ 0.03 µM) |
| Cc1nn(-c2ccccc2)c(-n2ccnc2)c1C1CC(c2ccc(O)cc2)=NN1 (stereo unspecified) | 0.012 (≈ 0.0312 µM) |
| Cc1nn(-c2ccccc2)c(-n2ccnc2)c1C1=CC(c2cc[nH]c2)=NC2Nc3ccccc3N12 (stereo unspecified) | 0.03 (≈ 0.0654 µM) |
| Cc1nn(-c2ccccc2)c(-n2cncn2)c1C1=CC(c2ccc(O)cc2)=NC2Nc3ccccc3N12 (stereo unspecified) | 0.03 (≈ 0.0617 µM) |
| Cc1cn(-c2c(C3CC(c4ccc(O)cc4)=NO3)c(C)nn2-c2ccccc2)cn1 (stereo unspecified) | 0.012 (≈ 0.03 µM) |
| Cc1cn(-c2c(C3CC(c4ccc(O)cc4)=NN3)c(C)nn2-c2ccccc2)cn1 (stereo unspecified) | 0.012 (≈ 0.0301 µM) |
| Cc1nn(-c2ccccc2)c(-n2ccnc2)c1C1=CC(c2ccc(F)cc2)=NC2Nc3ccccc3N12 (stereo unspecified) | 0.03 (≈ 0.0615 µM) |
| Cc1nn(-c2ccccc2)c(-n2ccnc2)c1C1CC(c2ccc(-c3ccccc3)cc2)=NN1 (stereo unspecified) | 0.012 (≈ 0.027 µM) |
| Cc1nn(-c2ccccc2)c(-n2ccnc2)c1C1CC(c2ccccc2)=NO1 (stereo unspecified) | 0.012 (≈ 0.0325 µM) |
| Cc1nn(-c2ccccc2)c(-n2ccnc2)c1C1CC(c2ccccc2)=NN1 (stereo unspecified) | 0.012 (≈ 0.0326 µM) |
| Cc1nn(-c2ccccc2)c(-n2ccnc2)c1C1CC(c2ccc(F)cc2)=NN1 (stereo unspecified) | 0.012 (≈ 0.0311 µM) |
| Cc1nn(-c2ccccc2)c(-n2ccnc2)c1C1CC(c2ccc(F)cc2)=NO1 (stereo unspecified) | 0.012 (≈ 0.031 µM) |
| COc1ccc(C2=NNC(c3c(C)nn(-c4ccccc4)c3-n3cnc(C)c3)C2)cc1 (stereo unspecified) | 0.012 (≈ 0.0291 µM) |
| COc1ccc(C2=NOC(c3c(C)nn(-c4ccccc4)c3-n3cnc(C)c3)C2)cc1 (stereo unspecified) | 0.012 (≈ 0.029 µM) |
| Cc1nn(-c2ccccc2)c(-n2ccnc2)c1C1CC(c2ccc(Br)cc2)=NO1 (stereo unspecified) | 0.012 (≈ 0.0268 µM) |
| Cc1nn(-c2ccccc2)c(-n2cncn2)c1C1=CC(c2cc[nH]c2)=NC2Nc3ccccc3N12 (stereo unspecified) | 0.03 (≈ 0.0653 µM) |
| Cc1cn(-c2c(C3CC(c4ccc(Br)cc4)=NN3)c(C)nn2-c2ccccc2)cn1 (stereo unspecified) | 0.012 (≈ 0.026 µM) |
| Cc1cn(-c2c(C3CC(c4ccccc4)=NN3)c(C)nn2-c2ccccc2)cn1 (stereo unspecified) | 0.012 (≈ 0.0314 µM) |
| Cc1nn(-c2ccccc2)c(-n2ccnc2)c1C1=CC(c2cccs2)=NC2Nc3ccccc3N12 (stereo unspecified) | 0.03 (≈ 0.0631 µM) |
| Cc1nn(-c2ccccc2)c(-n2ccnc2)c1C1=CC(c2ccc(O)cc2)=NC2Nc3ccccc3N12 (stereo unspecified) | 0.03 (≈ 0.0618 µM) |
| Cc1nn(-c2ccccc2)c(-n2ccnc2)c1C1CC(c2ccc(-c3ccccc3)cc2)=NO1 (stereo unspecified) | 0.012 (≈ 0.0269 µM) |
| Cc1nn(-c2ccccc2)c(-n2cncn2)c1C1=CC(c2ccccc2)=NC2Nc3ccccc3N12 (stereo unspecified) | 0.03 (≈ 0.0638 µM) |
| COc1ccc(C2=NNC(c3c(C)nn(-c4ccccc4)c3-n3ccnc3)C2)cc1 (stereo unspecified) | 0.012 (≈ 0.0301 µM) |
| Cc1cn(-c2c(C3CC(c4ccc(-c5ccccc5)cc4)=NN3)c(C)nn2-c2ccccc2)cn1 (stereo unspecified) | 0.012 (≈ 0.0262 µM) |
| Cc1nn(-c2ccccc2)c(-n2cncn2)c1C1=CC(c2cccs2)=NC2Nc3ccccc3N12 (stereo unspecified) | 0.03 (≈ 0.0629 µM) |
| Cc1cn(-c2c(C3CC(c4ccccc4)=NO3)c(C)nn2-c2ccccc2)cn1 (stereo unspecified) | 0.012 (≈ 0.0313 µM) |
